Assay results: PubChem BioAssay (NCI)
Where “and” joins values, the source holds several entries; their conditions need not be identical. Equal values may be shown once.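 Method: 48-hour compound exposure of cells in 96-well plates, five concentrations, linear interpolation of endpoints. GI50 is the concentration that inhibits growth by half. TGI: concentration producing complete growth inhibition.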

How the values were obtained:
Test in all cases: inhibition of tumour cell growth, NCI panel, 48 h
SF-539 CNS = tested on: SF-539 CNS
HCT-116 colon = tested on: HCT-116 colon
UACC-257 melanoma = tested on: UACC-257 melanoma
DU-145 prostate = tested on: DU-145 prostate
NCI-H460 lung = tested on: NCI-H460 lung
TK-10 renal = tested on: TK-10 renal
HT29 colon = tested on: HT29 colon
T-47D breast = tested on: T-47D breast
M14 melanoma = tested on: M14 melanoma
MOLT-4 leukemia = tested on: MOLT-4 leukemia

Cc1nn(C(=O)c2ccc(Cl)cc2)c2c1C(c1ccc(O)cc1)SC(N)=N2 (stereo unspecified)
TGI (SF-539 CNS): > 10 µM
TGI (HCT-116 colon): > 10 µM
TGI (UACC-257 melanoma): > 10 µM
TGI (DU-145 prostate): > 10 µM
TGI (NCI-H460 lung): > 10 µM
TGI (TK-10 renal): > 10 µM
TGI (HT29 colon): > 10 µM
TGI (T-47D breast): > 10 µM
TGI (M14 melanoma): > 10 µM
TGI (MOLT-4 leukemia): > 10 µM

O=C(CSC(c1ccccc1)c1ccccc1)N/N=C/c1ccco1
GI50 (SF-539 CNS): 2.07 µM
TGI (SF-539 CNS): 7.55 µM
GI50 (HCT-116 colon): 1.46 µM
TGI (HCT-116 colon): 2.98 µM
TGI (UACC-257 melanoma): 0.935 µM
GI50 (DU-145 prostate): 2.69 µM
TGI (DU-145 prostate): > 4.92 µM
GI50 (NCI-H460 lung): 2.16 µM
TGI (NCI-H460 lung): 12.8 µM
GI50 (TK-10 renal): 2.21 µM
TGI (TK-10 renal): 7.62 µM
GI50 (HT29 colon): 18.7 µM
TGI (HT29 colon): 48.3 µM
GI50 (T-47D breast): 28.3 µM
TGI (T-47D breast): > 100 µM
GI50 (M14 melanoma): 1.49 µM
TGI (M14 melanoma): 2.69 µM
GI50 (MOLT-4 leukemia): 1.64 µM
TGI (MOLT-4 leukemia): 4.48 µM

C=C1CC[C@@H](C(C)C)C[C@@H]2[C@H]([C@H](O)C[C@]2(C)O)[C@@]2(C)CC[C@@H]1O2
GI50 (SF-539 CNS): 24.4 µM
TGI (SF-539 CNS): 43.3 µM
GI50 (HCT-116 colon): 16.7 µM
TGI (HCT-116 colon): 30.3 µM
GI50 (UACC-257 melanoma): 16.2 µM
TGI (UACC-257 melanoma): 31.3 µM
GI50 (DU-145 prostate): 15.8 µM
TGI (DU-145 prostate): 31.4 µM
GI50 (NCI-H460 lung): 16.4 µM
TGI (NCI-H460 lung): 29.9 µM
GI50 (TK-10 renal): 21.7 µM
TGI (TK-10 renal): 43.7 µM
GI50 (HT29 colon): 11.8 µM
TGI (HT29 colon): 26.5 µM
GI50 (T-47D breast): 14.9 µM
TGI (T-47D breast): 33.1 µM
GI50 (M14 melanoma): 19.3 µM
TGI (M14 melanoma): 33.4 µM
GI50 (MOLT-4 leukemia): 22.8 µM
TGI (MOLT-4 leukemia): 51.2 µM

CC1=CC(=O)C(C(O)(C(F)(F)F)C(F)(F)F)C(C)(C)C1 (stereo unspecified)
TGI (SF-539 CNS): > 10 µM
TGI (HCT-116 colon): > 10 µM
TGI (UACC-257 melanoma): > 10 µM
TGI (DU-145 prostate): > 10 µM
TGI (NCI-H460 lung): > 10 µM
TGI (TK-10 renal): > 10 µM
TGI (HT29 colon): > 10 µM
TGI (T-47D breast): > 10 µM
TGI (M14 melanoma): > 10 µM
TGI (MOLT-4 leukemia): > 10 µM

O=C(N/N=C/c1ccc([N+](=O)[O-])o1)c1ccc(O)cc1
GI50 (SF-539 CNS): 4.39 µM
TGI (SF-539 CNS): 17 µM
GI50 (HCT-116 colon): 3.63 µM
TGI (HCT-116 colon): 12 µM
GI50 (UACC-257 melanoma): 4.97 µM
TGI (UACC-257 melanoma): 18.8 µM
GI50 (DU-145 prostate): 6.38 µM
TGI (DU-145 prostate): > 100 µM
GI50 (NCI-H460 lung): 3.37 µM
TGI (NCI-H460 lung): > 100 µM
GI50 (TK-10 renal): > 100 µM
TGI (TK-10 renal): > 100 µM
GI50 (HT29 colon): 5.88 µM
TGI (HT29 colon): > 100 µM
GI50 (T-47D breast): 6.96 µM
TGI (T-47D breast): 32.7 µM
GI50 (M14 melanoma): 3.67 µM
TGI (M14 melanoma): 11.3 µM
GI50 (MOLT-4 leukemia): 5.69 µM
TGI (MOLT-4 leukemia): > 100 µM

CCCCCCCCCCN1CCC(N2CCCCC2)CC1
GI50 (SF-539 CNS): 1.48 µM
TGI (SF-539 CNS): 2.88 µM
GI50 (HCT-116 colon): 1.27 µM
GI50 (UACC-257 melanoma): 1.76 µM
TGI (UACC-257 melanoma): 3.24 µM
GI50 (DU-145 prostate): 9.64 µM
TGI (DU-145 prostate): 21.9 µM
GI50 (NCI-H460 lung): 2.99 µM
TGI (NCI-H460 lung): 8.03 µM
GI50 (TK-10 renal): 2.08 µM
TGI (TK-10 renal): 5.71 µM
GI50 (HT29 colon): 0.606 µM
TGI (HT29 colon): 4.33 µM
GI50 (T-47D breast): 1.53 µM
TGI (T-47D breast): 3.58 µM
GI50 (M14 melanoma): 1.72 µM
GI50 (MOLT-4 leukemia): 2.09 µM
TGI (MOLT-4 leukemia): 6.65 µM

C[C@]12CC[C@@H]3c4ccc(O)c([N+](=O)[O-])c4CC[C@H]3[C@@H]1CC[C@@H]2NS(=O)(=O)c1cccc(Br)c1
GI50 (SF-539 CNS): 1.55 µM
TGI (SF-539 CNS): 3.24 µM
GI50 (HCT-116 colon): 1.92 µM
TGI (HCT-116 colon): 4.17 µM
GI50 (UACC-257 melanoma): 2.1 µM
TGI (UACC-257 melanoma): 5.04 µM
GI50 (DU-145 prostate): 3.6 µM
TGI (DU-145 prostate): 12.4 µM
GI50 (NCI-H460 lung): 1.81 µM
TGI (NCI-H460 lung): 3.56 µM
GI50 (TK-10 renal): 2.92 µM
TGI (TK-10 renal): 8.98 µM
GI50 (HT29 colon): 1.94 µM
TGI (HT29 colon): 3.92 µM
GI50 (T-47D breast): 1.8 µM
TGI (T-47D breast): 3.96 µM
GI50 (M14 melanoma): 1.91 µM
TGI (M14 melanoma): 4.11 µM
GI50 (MOLT-4 leukemia): 2.98 µM
TGI (MOLT-4 leukemia): 13.4 µM

C/C(=N\NC(=S)N1CC2CCC(CC2)C1)c1ccccn1
GI50 (SF-539 CNS): 0.257 µM
TGI (SF-539 CNS): 2.34 µM
GI50 (HCT-116 colon): < 0.01 µM
TGI (HCT-116 colon): 1.15 µM
GI50 (UACC-257 melanoma): 0.0214 µM
TGI (UACC-257 melanoma): 0.357 µM
GI50 (DU-145 prostate): 0.408 µM
TGI (DU-145 prostate): 2.83 µM
GI50 (NCI-H460 lung): 0.044 µM
TGI (NCI-H460 lung): 1.37 µM
GI50 (TK-10 renal): 0.405 µM
TGI (TK-10 renal): 1.78 µM
GI50 (HT29 colon): < 0.014 µM
TGI (HT29 colon): 1.67 µM
GI50 (T-47D breast): 0.0113 µM
TGI (T-47D breast): 1.39 µM
GI50 (M14 melanoma): 0.0431 µM
TGI (M14 melanoma): 1.21 µM
GI50 (MOLT-4 leukemia): 0.0598 µM
TGI (MOLT-4 leukemia): 3.74 µM

CCN(CC)CCNC(=O)c1ccc(C)c(OCc2ccccc2)c1[N+](=O)[O-]
TGI (SF-539 CNS): 70.9 µM
TGI (HCT-116 colon): 47.8 µM
TGI (UACC-257 melanoma): 36.3 µM
TGI (DU-145 prostate): > 100 µM
TGI (NCI-H460 lung): > 100 µM
TGI (TK-10 renal): 98.1 µM
TGI (HT29 colon): 38.7 µM
TGI (T-47D breast): 58 µM
TGI (M14 melanoma): 32.3 µM
TGI (MOLT-4 leukemia): 77.8 µM

C[C@H]1CCC/C=C/[C@@H]2C[C@H](O)C[C@H]2[C@H](O)[C@@H](SCC(O)CO)CC(=O)O1 (stereo partly specified)
GI50 (SF-539 CNS): 31.8 µM
TGI (SF-539 CNS): > 100 µM
GI50 (HCT-116 colon): 35.5 µM
TGI (HCT-116 colon): > 100 µM
GI50 (UACC-257 melanoma): 6.74 µM
TGI (UACC-257 melanoma): > 100 µM
GI50 (DU-145 prostate): 17.8 µM
TGI (DU-145 prostate): 39.2 µM
GI50 (NCI-H460 lung): 26.3 µM
TGI (NCI-H460 lung): > 100 µM
GI50 (TK-10 renal): 48 µM
TGI (TK-10 renal): > 100 µM
GI50 (HT29 colon): 10.2 µM
TGI (HT29 colon): 40.8 µM
GI50 (T-47D breast): 45.2 µM
TGI (T-47D breast): > 100 µM
GI50 (M14 melanoma): 12.4 µM
TGI (M14 melanoma): > 100 µM
GI50 (MOLT-4 leukemia): 27.1 µM
TGI (MOLT-4 leukemia): 84.3 µM

O=C(CCCN1CCC2(CC1)C(=NC1CCCCC1)NC(=O)N2c1ccccc1)c1ccc(F)cc1
TGI (SF-539 CNS): 33.9 µM
TGI (HCT-116 colon): 46.1 µM
TGI (UACC-257 melanoma): 36 µM
TGI (DU-145 prostate): > 100 µM
TGI (NCI-H460 lung): 54.5 µM
TGI (TK-10 renal): 63.2 µM
TGI (HT29 colon): 37 µM
TGI (T-47D breast): 76.4 µM
TGI (M14 melanoma): 32.8 µM
TGI (MOLT-4 leukemia): 57.2 µM

CCCCCCCCCCCCOC1C(C(CC(=O)NCCN2CCCC2)NS(=O)(=O)c2cc(Cl)cc(Cl)c2)OC2OC(C)(C)OC21 (stereo unspecified)
GI50 (SF-539 CNS): 2.01 µM
TGI (SF-539 CNS): 3.48 µM
GI50 (HCT-116 colon): 1.85 µM
TGI (HCT-116 colon): 4.78 µM
GI50 (UACC-257 melanoma): 2.04 µM
TGI (UACC-257 melanoma): 4.84 µM
GI50 (DU-145 prostate): 1.86 µM and 1.79 µM
TGI (DU-145 prostate): 3.45 µM and 3.23 µM
GI50 (NCI-H460 lung): 1.86 µM and 1.89 µM
TGI (NCI-H460 lung): 3.68 µM and 3.73 µM
GI50 (TK-10 renal): 2 µM
TGI (TK-10 renal): 3.82 µM
GI50 (HT29 colon): 1.76 µM and 1.31 µM
TGI (HT29 colon): 3.45 µM and 2.85 µM
TGI (T-47D breast): 4.46 µM and 2.04 µM
GI50 (M14 melanoma): 1.71 µM
TGI (M14 melanoma): 3.45 µM
GI50 (MOLT-4 leukemia): 2.03 µM
TGI (MOLT-4 leukemia): 4.33 µM

O=C(Nc1ccc(Cl)c(Cl)c1)Nc1ccccc1O
GI50 (SF-539 CNS): 12.4 µM
TGI (SF-539 CNS): 30.4 µM
GI50 (HCT-116 colon): 7.22 µM
TGI (HCT-116 colon): 33.5 µM
GI50 (UACC-257 melanoma): 6.6 µM
TGI (UACC-257 melanoma): 25 µM
GI50 (DU-145 prostate): 9.75 µM
TGI (DU-145 prostate): 31.1 µM
GI50 (NCI-H460 lung): 4.03 µM
TGI (NCI-H460 lung): 16.1 µM
GI50 (TK-10 renal): 6.41 µM
TGI (TK-10 renal): 28 µM
GI50 (HT29 colon): 18.5 µM
TGI (HT29 colon): 36.1 µM
GI50 (T-47D breast): 4.11 µM
TGI (T-47D breast): 43.6 µM
GI50 (M14 melanoma): 17.7 µM
TGI (M14 melanoma): 61.9 µM
GI50 (MOLT-4 leukemia): 3.15 µM
TGI (MOLT-4 leukemia): 49.1 µM

COc1ccc(Cc2cnc(NC(=O)c3ccc4c(c3)OCCO4)s2)cc1
GI50 (SF-539 CNS): 0.0257 µM
TGI (SF-539 CNS): 0.714 µM
GI50 (HCT-116 colon): 0.032 µM
TGI (HCT-116 colon): > 38.8 µM
GI50 (UACC-257 melanoma): 4.83 µM
TGI (UACC-257 melanoma): > 100 µM
GI50 (DU-145 prostate): 0.037 µM
TGI (DU-145 prostate): > 41.1 µM
GI50 (NCI-H460 lung): 0.0344 µM
TGI (NCI-H460 lung): 26 µM
GI50 (TK-10 renal): 0.406 µM
TGI (TK-10 renal): 35.3 µM
GI50 (HT29 colon): 0.0418 µM
TGI (HT29 colon): > 55.4 µM
GI50 (T-47D breast): 2.95 µM
TGI (T-47D breast): > 100 µM
GI50 (M14 melanoma): 0.0228 µM
TGI (M14 melanoma): 22.4 µM
GI50 (MOLT-4 leukemia): 0.0504 µM
TGI (MOLT-4 leukemia): > 100 µM
